# Source: PubChem BioAssay AID272 (DTP/NCI, 2004)
# Inconclusive results are not listed. Residues, ends and D or L forms follow the SMILES beside them. *: point of attachment. Trt = c1ccc(C(c2ccccc2)(c2ccccc2)*)cc1; Bn = c1ccc(C*)cc1
# System: Lewis lung carcinoma i.m., BDF1 mice, T/C %
# Experiment: NCI In Vivo Anticancer Drug Screen. Data for tumor model Lewis Lung Carcinoma (intramuscular) in B6D2F1 (BDF1) mice
# How it was run: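 Compound given to mice with transplantable tumours; survival or tumour size compared against the vehicle control group, reported as T divided by C.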
structure (smiles),measurement,setting,value
CCN(CC)CCNc1ccc(CO)c2sc3ccccc3c(=O)c12,T/C,"endpoint: mean tumor weight (est.), dose: 18.75 mg/kg/injection, schedule: Q01DX011 (ip), vehicle: saline, higher = larger tumour",110 % of control
same,T/C,"endpoint: mean tumor weight (est.), dose: 37.5 mg/kg/injection, schedule: Q01DX011 (ip), vehicle: saline, higher = larger tumour",56 % of control
same,T/C,"endpoint: mean tumor weight (est.), dose: 75.0 mg/kg/injection, schedule: Q01DX011 (ip), vehicle: saline, higher = larger tumour",19 % of control
same,T/C,"endpoint: median survival time, dose: 18.75 mg/kg/injection, schedule: Q01DX011 (ip), vehicle: saline, higher = longer survival",105 % of control
same,T/C,"endpoint: median survival time, dose: 37.5 mg/kg/injection, schedule: Q01DX011 (ip), vehicle: saline, higher = longer survival",107 % of control
same,T/C,"endpoint: median survival time, dose: 75.0 mg/kg/injection, schedule: Q01DX011 (ip), vehicle: saline, higher = longer survival",113 % of control
N#C[C@@H]1C2C=CC(CC2)[C@H]1C#N,T/C,"endpoint: mean tumor weight (est.), dose: 0.15 mg/kg/injection, schedule: Q01DX011 (ip), vehicle: saline, higher = larger tumour",56 % of control
same,T/C,"endpoint: mean tumor weight (est.), dose: 0.3 mg/kg/injection, schedule: Q01DX011 (ip), vehicle: saline, higher = larger tumour",83 % of control
same,T/C,"endpoint: mean tumor weight (est.), dose: 0.6 mg/kg/injection, schedule: Q01DX011 (ip), vehicle: saline, higher = larger tumour",98 % of control
same,T/C,"endpoint: mean tumor weight (est.), dose: 1.2 mg/kg/injection, schedule: Q01DX011 (ip), vehicle: saline, higher = larger tumour",95 % of control
CSc1nc(N)cc(NC(=O)CCl)n1,T/C,"endpoint: mean tumor weight (est.), dose: 25.0 mg/kg/injection, schedule: Q01DX011 (ip), vehicle: saline, higher = larger tumour",92 % of control
same,T/C,"endpoint: mean tumor weight (est.), dose: 50.0 mg/kg/injection, schedule: Q01DX011 (ip), vehicle: saline, higher = larger tumour",69 % of control
same,T/C,"endpoint: mean tumor weight (est.), dose: 100.0 mg/kg/injection, schedule: Q01DX011 (ip), vehicle: saline, higher = larger tumour",35 % of control
CC1OC(O[C@@H]2C=C3CC[C@@H]4[C@H](CC[C@]5(C)[C@@H](c6ccc(=O)oc6)CC[C@]45O)[C@@]3(C)CC2)C(O)C(O)C1O (some centres not stated),T/C,"endpoint: mean tumor weight, dose: 0.31 mg/kg/injection, schedule: Q01DX011 (ip), vehicle: steriod suspending solution, higher = larger tumour",92 % of control
same,T/C,"endpoint: mean tumor weight, dose: 0.62 mg/kg/injection, schedule: Q01DX011 (ip), vehicle: steriod suspending solution, higher = larger tumour",114 % of control
same,T/C,"endpoint: mean tumor weight, dose: 1.25 mg/kg/injection, schedule: Q01DX011 (ip), vehicle: steriod suspending solution, higher = larger tumour",36 % of control
same,T/C,"endpoint: mean tumor weight, dose: 2.5 mg/kg/injection, schedule: Q01DX011 (ip), vehicle: steriod suspending solution, higher = larger tumour",50 % of control
same,T/C,"endpoint: median survival time, dose: 0.31 mg/kg/injection, schedule: Q01DX011 (ip), vehicle: steriod suspending solution, higher = longer survival",122 % of control
same,T/C,"endpoint: median survival time, dose: 1.25 mg/kg/injection, schedule: Q01DX011 (ip), vehicle: steriod suspending solution, higher = longer survival",113 % of control
same,T/C,"endpoint: median survival time, dose: 2.5 mg/kg/injection, schedule: Q01DX011 (ip), vehicle: steriod suspending solution, higher = longer survival",119 % of control
COC(=O)C(CSC(c1ccccc1)(c1ccccc1)c1ccccc1)NC(=O)C(CSCc1ccccc1)NC(C)=O (configuration not stated) (Ac-Cys(Bn)-Cys(Trt)-OMe; configuration not given here),T/C,"endpoint: median survival time, dose: 8.0 mg/kg/injection, schedule: Q01DX009 (ip), vehicle: Klucel (hydroxypropylcellulose) (HPC), higher = longer survival",165 % of control
same,T/C,"endpoint: median survival time, dose: 32.0 mg/kg/injection, schedule: Q01DX009 (ip), vehicle: Klucel (hydroxypropylcellulose) (HPC), higher = longer survival",121 % of control
same,T/C,"endpoint: median survival time, dose: 64.0 mg/kg/injection, schedule: Q01DX009 (ip), vehicle: Klucel (hydroxypropylcellulose) (HPC), higher = longer survival",121 % of control
Nc1nc2c(c(=O)[nH]1)NC(CCNc1ccc(C(=O)NC(CCC(=O)O)C(=O)O)cc1)CN2 (configuration not stated),T/C,"endpoint: mean tumor weight (est.), dose: 3.13 mg/kg/injection, schedule: Q01DX011 (ip), vehicle: other, higher = larger tumour",112 % of control
same,T/C,"endpoint: mean tumor weight (est.), dose: 6.25 mg/kg/injection, schedule: Q01DX011 (ip), vehicle: other, higher = larger tumour",81 % of control
same,T/C,"endpoint: mean tumor weight (est.), dose: 12.5 mg/kg/injection, schedule: Q01DX011 (ip), vehicle: other, higher = larger tumour",104 % of control
same,T/C,"endpoint: mean tumor weight (est.), dose: 25.0 mg/kg/injection, schedule: Q01DX011 (ip), vehicle: other, higher = larger tumour",99 % of control
same,T/C,"endpoint: mean tumor weight (est.), dose: 50.0 mg/kg/injection, schedule: Q01DX011 (ip), vehicle: other, higher = larger tumour",68 % of control
same,T/C,"endpoint: mean tumor weight (est.), dose: 100.0 mg/kg/injection, schedule: Q01DX011 (ip), vehicle: other, higher = larger tumour",63 % of control
same,T/C,"endpoint: mean tumor weight, dose: 6.25 mg/kg/injection, schedule: Q01DX011 (ip), vehicle: other, higher = larger tumour",100 % of control
same,T/C,"endpoint: mean tumor weight, dose: 25.0 mg/kg/injection, schedule: Q01DX011 (ip), vehicle: other, higher = larger tumour",101 % of control
same,T/C,"endpoint: mean tumor weight, dose: 50.0 mg/kg/injection, schedule: Q01DX011 (ip), vehicle: other, higher = larger tumour",78 % of control
same,T/C,"endpoint: mean tumor weight, dose: 100.0 mg/kg/injection, schedule: Q01DX011 (ip), vehicle: other, higher = larger tumour",68 % of control
same,T/C,"endpoint: median survival time, dose: 6.25 mg/kg/injection, schedule: Q01DX011 (ip), vehicle: other, higher = longer survival",94 % of control
same,T/C,"endpoint: median survival time, dose: 12.5 mg/kg/injection, schedule: Q01DX011 (ip), vehicle: other, higher = longer survival",103 % of control
same,T/C,"endpoint: median survival time, dose: 25.0 mg/kg/injection, schedule: Q01DX011 (ip), vehicle: other, higher = longer survival",98 % of control
same,T/C,"endpoint: median survival time, dose: 100.0 mg/kg/injection, schedule: Q01DX011 (ip), vehicle: other, higher = longer survival",108 % of control
